Assay results taken from PubChem BioAssay (NCI).
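Assay format: 96-well plates, 48-hour exposure. TGI is the concentration that stops growth completely.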

Key:
Assay in all cases: NCI anticancer screen, dose series, 48 h
K-562 leukemia = test system: K-562 leukemia
OVCAR-4 ovarian = test system: OVCAR-4 ovarian
HS 578T breast = test system: HS 578T breast
PC-3 prostate = test system: PC-3 prostate
UO-31 renal = test system: UO-31 renal
NCI/ADR-RES ovarian = test system: NCI/ADR-RES ovarian
A498 renal = test system: A498 renal
HL-60(TB) leukemia = test system: HL-60(TB) leukemia
CCRF-CEM leukemia = test system: CCRF-CEM leukemia
SNB-19 CNS = test system: SNB-19 CNS

## COc1ccc2nc3c([N+](=O)[O-])ccc4c3c(c2c1)N=CN4CCN(C)C
K-562 leukemia
  TGI: 2.94 µM
OVCAR-4 ovarian
  TGI: 34.9 µM
HS 578T breast
  TGI: 28.1 µM
PC-3 prostate
  TGI: 35.4 µM
UO-31 renal
  TGI: 11.6 µM
NCI/ADR-RES ovarian
  TGI: 22 µM
A498 renal
  TGI: 15.4 µM
HL-60(TB) leukemia
  TGI: 0.616 µM
CCRF-CEM leukemia
  TGI: 9.76 µM
SNB-19 CNS
  TGI: 28 µM

## O=[N+]([O-])c1ccc(C2NC(=S)NC3c4cc([N+](=O)[O-])ccc4CCCC23)cc1 (stereo not given)
K-562 leukemia
  TGI: > 100 µM
OVCAR-4 ovarian
  TGI: > 100 µM
HS 578T breast
  TGI: > 100 µM
PC-3 prostate
  TGI: > 100 µM
UO-31 renal
  TGI: > 100 µM
NCI/ADR-RES ovarian
  TGI: > 100 µM
A498 renal
  TGI: > 100 µM
HL-60(TB) leukemia
  TGI: > 100 µM
CCRF-CEM leukemia
  TGI: > 100 µM
SNB-19 CNS
  TGI: > 100 µM

## Oc1ccccc1CNCc1ccccc1O
K-562 leukemia
  TGI: > 100 µM
OVCAR-4 ovarian
  TGI: > 100 µM
HS 578T breast
  TGI: > 100 µM
PC-3 prostate
  TGI: > 100 µM
UO-31 renal
  TGI: > 100 µM
NCI/ADR-RES ovarian
  TGI: > 100 µM
A498 renal
  TGI: > 100 µM
HL-60(TB) leukemia
  TGI: > 100 µM
CCRF-CEM leukemia
  TGI: > 100 µM
SNB-19 CNS
  TGI: > 100 µM

## O=c1[nH]c(Br)nc2n[nH]nc12
K-562 leukemia
  TGI: > 100 µM
OVCAR-4 ovarian
  TGI: > 100 µM
HS 578T breast
  TGI: > 100 µM
PC-3 prostate
  TGI: > 100 µM
UO-31 renal
  TGI: > 100 µM
NCI/ADR-RES ovarian
  TGI: > 100 µM
A498 renal
  TGI: > 100 µM
HL-60(TB) leukemia
  TGI: > 100 µM
CCRF-CEM leukemia
  TGI: > 100 µM
SNB-19 CNS
  TGI: > 100 µM

## Nc1n[nH]c(N)n1
K-562 leukemia
  TGI: > 10000 µM
OVCAR-4 ovarian
  TGI: > 10000 µM
HS 578T breast
  TGI: > 10000 µM
PC-3 prostate
  TGI: > 10000 µM
UO-31 renal
  TGI: > 10000 µM
NCI/ADR-RES ovarian
  TGI: > 10000 µM
A498 renal
  TGI: > 10000 µM
HL-60(TB) leukemia
  TGI: 7060 µM
CCRF-CEM leukemia
  TGI: > 9030 µM
SNB-19 CNS
  TGI: > 10000 µM

## CC(C)(C)c1cc(OCc2n[nH]c(=S)n2N)c(Cl)cc1OCc1n[nH]c(=S)n1N
K-562 leukemia
  TGI: > 100 µM
OVCAR-4 ovarian
  TGI: > 100 µM
HS 578T breast
  TGI: > 100 µM
PC-3 prostate
  TGI: > 100 µM
UO-31 renal
  TGI: > 100 µM
NCI/ADR-RES ovarian
  TGI: > 100 µM
A498 renal
  TGI: > 100 µM
HL-60(TB) leukemia
  TGI: 58.5 µM
CCRF-CEM leukemia
  TGI: > 100 µM
SNB-19 CNS
  TGI: > 100 µM

## CCOC(=O)CN1C(=O)c2c(NC(=O)C(=O)O)cccc2S1(=O)=O
K-562 leukemia
  TGI: > 100 µM
OVCAR-4 ovarian
  TGI: > 100 µM
HS 578T breast
  TGI: > 100 µM
PC-3 prostate
  TGI: > 100 µM
UO-31 renal
  TGI: > 100 µM
NCI/ADR-RES ovarian
  TGI: > 100 µM
A498 renal
  TGI: > 100 µM
HL-60(TB) leukemia
  TGI: > 100 µM
CCRF-CEM leukemia
  TGI: > 100 µM
SNB-19 CNS
  TGI: > 100 µM

## O=C(NCCCN1CCN(CCCNC(=O)c2cc(-c3ccccc3)nc3ccccc23)CC1)c1cc(-c2ccccc2)nc2ccccc12
K-562 leukemia
  TGI: 34.2 µM
OVCAR-4 ovarian
  TGI: > 58.4 µM
HS 578T breast
  TGI: 37.1 µM
PC-3 prostate
  TGI: 26 µM
UO-31 renal
  TGI: > 42.2 µM
NCI/ADR-RES ovarian
  TGI: > 72.3 µM
A498 renal
  TGI: 73.6 µM
HL-60(TB) leukemia
  TGI: > 51.8 µM
CCRF-CEM leukemia
  TGI: > 56.4 µM
SNB-19 CNS
  TGI: 33 µM

## CC(c1ccccc1)n1c2ccccc2c2c(N)ncnc21 (stereo not given)
K-562 leukemia
  TGI: 71.9 µM
OVCAR-4 ovarian
  TGI: 31.2 µM
HS 578T breast
  TGI: 47 µM
PC-3 prostate
  TGI: 34.4 µM
UO-31 renal
  TGI: 22.2 µM
NCI/ADR-RES ovarian
  TGI: 46.3 µM
A498 renal
  TGI: 30.3 µM
HL-60(TB) leukemia
  TGI: 47.8 µM
CCRF-CEM leukemia
  TGI: > 100 µM
SNB-19 CNS
  TGI: 33.8 µM

## CCOC(=O)c1c(Br)c(-c2ccc([N+](=O)[O-])cc2)c(Br)n1C
K-562 leukemia
  TGI: > 10 µM
OVCAR-4 ovarian
  TGI: > 10 µM
HS 578T breast
  TGI: > 10 µM
PC-3 prostate
  TGI: > 10 µM
UO-31 renal
  TGI: > 10 µM
NCI/ADR-RES ovarian
  TGI: > 10 µM
A498 renal
  TGI: > 10 µM
HL-60(TB) leukemia
  TGI: > 10 µM
CCRF-CEM leukemia
  TGI: > 10 µM
SNB-19 CNS
  TGI: > 10 µM

## CC(=O)c1sc2c(c1OC(=O)c1ccccc1)c(=O)n(-c1ccccc1)c(=S)n2-c1ccccc1
K-562 leukemia
  TGI: > 58.3 µM
OVCAR-4 ovarian
  TGI: 57.9 µM
HS 578T breast
  TGI: > 30.7 µM
PC-3 prostate
  TGI: 14.9 µM
UO-31 renal
  TGI: 12.6 µM
NCI/ADR-RES ovarian
  TGI: 28.7 µM
A498 renal
  TGI: 7.87 µM
HL-60(TB) leukemia
  TGI: > 68.1 µM
CCRF-CEM leukemia
  TGI: 5.83 µM
SNB-19 CNS
  TGI: > 47.8 µM

## CCOC(=O)C12CCC(c3c(C)cccc3C)(O1)C(C(=O)OC)=C2C(=O)OC (stereo not given)
K-562 leukemia
  TGI: > 10 µM
OVCAR-4 ovarian
  TGI: > 10 µM
HS 578T breast
  TGI: > 9.49 µM
PC-3 prostate
  TGI: > 10 µM
UO-31 renal
  TGI: > 10 µM
NCI/ADR-RES ovarian
  TGI: > 10 µM
A498 renal
  TGI: 7 µM
HL-60(TB) leukemia
  TGI: > 7.4 µM
CCRF-CEM leukemia
  TGI: > 10 µM
SNB-19 CNS
  TGI: > 10 µM
